Columns and labels:
HL-6O(TB) = assay: NCI-60 SRB growth inhibition: HL-6O(TB); assay type: cell-based, human; conditions: Leukemia, 48 hours treatment
SN12C = assay: NCI-60 SRB growth inhibition: SN12C; assay type: cell-based, human; conditions: Renal cancer, 48 hours treatment; for CC50: Homo sapiens, read-out: LC50 (the source's name)
KM12 = assay: NCI-60 SRB growth inhibition: KM12; assay type: cell-based, human; conditions: KM12, Colon cancer, 48 hours treatment; for CC50: Homo sapiens, read-out: LC50 (the source's name)
SF-539 = assay: NCI-60 SRB growth inhibition: SF-539; assay type: cell-based, human; conditions: SF-539, CNS cancer; 48 hours treatment
MDA-MB-435 = assay: NCI-60 SRB growth inhibition: MDA-MB-435; assay type: cell-based, human; conditions: MDA-MB-435, Melanoma, 48 hours treatment; for CC50: Homo sapiens, read-out: LC50 (the source's name)
K-562 = assay: NCI-60 SRB growth inhibition: K-562; assay type: cell-based, human; conditions: K-562, Leukemia, 48 hours treatment; for CC50: Homo sapiens, K562, read-out: LC50 (the source's name)
CCRF-CEM = assay: NCI-60 SRB growth inhibition: CCRF-CEM; assay type: cell-based, human; conditions: Leukemia, 48 hours treatment
ABL1(F317I) = molecular target: T1, ABL1(F317I) (Homo sapiens, UniProt P00519, F317I); assay: Kinase binding screening: ABL1(F317I); conditions: 10 μM compound, phosphorylated form, read-out: B-POC (binding percentage of control)
T1 construct: purchased Ambit Bioscience (assay service)
Method: (§1) Biotinylated kinase ligand was immobilized onto streptavidin coated magnetic beads and washed with blocking buffer. The liganded beads were then incubated with DNA-tagged kinase in the presence of test compound for 1 h at room temperature. Binding reactions were carried out in 20% Seablock, 0.17×PBS, 0.005% Tween 20, 6 mM DTT, in a final volume of 0.04 mL. Beads were then washed with wash buffer (PBS, 0.05% Tween 20), and then incubated with elution buffer (PBS, 0.05% Tween […] non-biotinylated kinase ligand) and eluted. The kinase concentration in the eluate was then measured by quantitative PCR. […] The results of this single dose screening are reported in the form of binding percentage of control (B-POC) which is defined as follows:
(§2) [formula] The negative control signal is obtained by the vehicle and corresponds to B-POC=100%. The positive signal control is detected by a binding positive compound and is B-POC 0%. The B-POC results are the average of duplicate measurements. Only interactions with […] were considered significant and thus used for calculating the selectivity scores (Table 1) of the test compounds as follows:
(§3) [formula] […] The Kd is then calculated according to the following equation:
(§4) [formula] hill slope=−1. A non-linear least square fit with the Levenberg-Marquardt algorithm was implemented to fit the curves (FIG. 3). […]

NCI-H460 = assay: NCI-60 SRB growth inhibition: NCI-H460; assay type: cell-based, human; conditions: NCI-H460, Non-small cell lung cancer, 48 hours treatment; for CC50: Homo sapiens, read-out: LC50 (the source's name)
M14 = assay: NCI-60 SRB growth inhibition: M14; assay type: cell-based, human; conditions: M14, Melanoma, 48 hours treatment; for CC50: Homo sapiens, read-out: LC50 (the source's name)
HOP-92 = assay: NCI-60 SRB growth inhibition: HOP-92; assay type: cell-based, human; conditions: HOP-92, Non-small cell lung cancer; 48 hours treatment
ABL1(F317L) = molecular target: T2, ABL1(F317L) (Homo sapiens, UniProt P00519, F317L); assay: Kinase binding screening: ABL1(F317L); conditions: 10 μM compound, phosphorylated form, read-out: B-POC (binding percentage of control)
T2 construct: purchased Ambit Bioscience (assay service)
Method: as §1, §2, §3, §4

MDA-MB-468 [1] = assay: Cell cycle analysis of MDA-MB-468 cells; assay type: cell-based, human; conditions: MDA-MB-468, within 24 hours
MDA-MB-468 [2] = assay: Annexin V assay, MDA-MB-468 cells; assay type: cell-based, human; conditions: MDA-MB-468, higher doses, within 24 hours

T1 sequence (P00519 whole entry F317I): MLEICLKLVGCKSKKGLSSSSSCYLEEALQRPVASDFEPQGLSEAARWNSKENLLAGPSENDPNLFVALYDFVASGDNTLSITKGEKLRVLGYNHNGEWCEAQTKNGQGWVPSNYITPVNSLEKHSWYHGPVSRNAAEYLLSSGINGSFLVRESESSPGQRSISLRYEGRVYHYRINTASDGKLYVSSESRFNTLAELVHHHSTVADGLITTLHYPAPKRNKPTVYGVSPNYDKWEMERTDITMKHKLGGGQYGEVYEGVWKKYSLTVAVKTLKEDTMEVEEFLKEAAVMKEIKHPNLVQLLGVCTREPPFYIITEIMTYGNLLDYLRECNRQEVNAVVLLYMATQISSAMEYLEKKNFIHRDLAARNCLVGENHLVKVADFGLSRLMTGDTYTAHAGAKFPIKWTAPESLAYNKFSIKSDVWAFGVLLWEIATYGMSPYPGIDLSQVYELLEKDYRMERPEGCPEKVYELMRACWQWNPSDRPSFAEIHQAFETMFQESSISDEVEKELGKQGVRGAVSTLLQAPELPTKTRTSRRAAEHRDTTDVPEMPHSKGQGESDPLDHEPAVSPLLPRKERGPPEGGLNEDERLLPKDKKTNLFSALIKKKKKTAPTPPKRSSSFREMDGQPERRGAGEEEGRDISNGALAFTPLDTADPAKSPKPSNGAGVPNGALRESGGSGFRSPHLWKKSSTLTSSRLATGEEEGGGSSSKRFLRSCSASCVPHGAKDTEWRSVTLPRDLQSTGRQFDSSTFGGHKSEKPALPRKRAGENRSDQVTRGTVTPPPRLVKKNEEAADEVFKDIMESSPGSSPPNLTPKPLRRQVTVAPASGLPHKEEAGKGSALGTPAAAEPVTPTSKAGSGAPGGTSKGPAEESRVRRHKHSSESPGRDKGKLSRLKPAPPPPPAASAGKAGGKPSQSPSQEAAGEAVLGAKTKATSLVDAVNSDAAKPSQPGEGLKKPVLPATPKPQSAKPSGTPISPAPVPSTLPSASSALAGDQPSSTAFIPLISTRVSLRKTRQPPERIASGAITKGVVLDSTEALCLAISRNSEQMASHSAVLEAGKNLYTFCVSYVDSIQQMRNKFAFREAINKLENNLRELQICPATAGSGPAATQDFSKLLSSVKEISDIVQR
T2 sequence (P00519 whole entry F317L): as the sequence (P00519 whole entry F317I) above, with I317L counted along it

| SMILES | TGI (HL-6O(TB)) [µM] | CC50 (SN12C) [µM] | TGI (SN12C) [µM] | CC50 (KM12) [µM] | TGI (KM12) [µM] | TGI (SF-539) [µM] | CC50 (MDA-MB-435) [µM] | TGI (MDA-MB-435) [µM] | CC50 (K-562) [µM] | TGI (K-562) [µM] | TGI (CCRF-CEM) [µM] | remaining activity at 10 µM (ABL1(F317I)) [%] | CC50 (NCI-H460) [µM] | TGI (NCI-H460) [µM] | CC50 (M14) [µM] | TGI (M14) [µM] | TGI (HOP-92) [µM] | remaining activity at 10 µM (ABL1(F317L)) [%] | cell cycle effect (MDA-MB-468 [1]) | apoptosis (Annexin V) (MDA-MB-468 [2]) |
| --- | --- | --- | --- | --- | --- | --- | --- | --- | --- | --- | --- | --- | --- | --- | --- | --- | --- | --- | --- | --- |
| c1ccc(Cc2cnc(N3CCN(c4ncnc5ccccc45)CC3)nc2)cc1 [Compound 4, 4-(4-(5-benzylpyrimidin-2-yl)piperazin-1-yl)quinazoline] | 41.80 | 54.8 | 24.40 | 50.1 | 25.10 | 28.50 | 91.4 | 27.50 | > 100 | >100 | 64.40 | 30 | 55 | 23.70 | 51.6 | 26.30 | 24.20 |  |  |  |
| CCc1cnc(N2CCN(C(=O)c3ccc(CNc4ncnc5ccccc45)cc3)CC2)nc1 [Compound 15, (4-(5-ethylpyrimidin-2-yl)piperazin-1-yl)(4-((quinazolin-4-ylamino)methyl)phenyl)methanone] | 38.60 | > 100 | 59.00 | 53.8 | 24.30 | >100 | > 100 | >100 | > 100 | >100 | 60.90 |  | > 100 | 30.70 | 93.7 | 32.70 | 80.09 | 6.8 | arrest at the G2/M phase of the cell cycle | a significant fraction of the tumor cells undergo apoptosis |
| O=C(c1cccc(Nc2ncnc3ccccc23)c1)N1CCN(c2ncc(Cc3ccccc3)cn2)CC1 [Compound 16, (4-(5-benzylpyrimidin-2-yl)piperazin-1-yl)(3-(quinazolin-4-ylamino)phenyl)methanone] | 1.54 | > 100 | 7.08 | 6.61 | 2.40 | 4.90 | 4.57 | 2.14 | > 100 | 2.23 |  | 20 | > 100 | 4.27 | 4.68 | 2.14 |  |  |  |  |

Source: patent US8609672B2, “Piperazinylpyrimidine analogues as protein kinase inhibitors” (University of the Pacific, priority 2010, dated 2013)
